Test results: patent publication US20250332173A1, “COMPOUNDS AND METHODS FOR MODULATING NUCLEIC ACID SPLICING” (REMIX THERAPEUTICS INC., priority 2021, published 2025)
Like-named read-outs stand apart in the source and are kept apart here.

Tests used:
HTT mRNA = test: RT-qPCR splicing assay, HTT canonical junction (CJ) and alternative junction (AJ) mRNA; assay type: cell-based, human; conditions: Homo sapiens; for AC50: increase in HTT alternative junction (AJ) mRNA, read-out: HTT AJ AC50
Procedure, shortened: (§1)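 Splicing switches were read by TaqMan RT-qPCR on lysates, quantifying exon-exon junctions of the canonical and alternative-exon isoforms. Lysates came from K562 (GAPDH/GUSB reference) or A673 (PPIA reference) cells exposed 24 h to compound in 11 threefold steps from 10 uM, with DMSO ≤0.25%.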

Target C = test: HiBiT protein abundance assay, Target C (Promega Nano-Glo HiBiT Lytic Detection System, knock-in K562 cell line); assay type: cell-based, human; conditions: Homo sapiens, K562, 24 h, HiBiT K562 cell line, 24 hours, top dose 10 μM; read-out: Effect on protein abundance, Target C (IC50 category)
Procedure, shortened: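 Protein abundance was read by Nano-Glo HiBiT lytic luminescence after 24 h compound exposure (10-point, threefold series from 10 μM final) of HiBiT knock-in K562 cells. Parental K562 served as baseline; the 50%-abundance concentration was interpolated from a four-parameter logistic fit.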

MYB mRNA = test: RT-qPCR splicing assay, MYB canonical junction (CJ) and alternative junction (AJ) mRNA; assay type: cell-based, human; conditions: Homo sapiens; for AC50: increase in MYB alternative junction (AJ) mRNA, read-out: MYB AJ AC50
Procedure, shortened: as §1

[1] = test system: K562 (human chronic myelogenous leukemia) cells; test: Cell Titer Glo 2.0 cell viability assay; assay type: cell-based; conditions: Homo sapiens, K562, 72 h, K562 cells, 72 hours, Cell Titer Glo 2.0; read-out: K562 GI50
[2] = decrease in HTT canonical junction (CJ) mRNA, RT-qPCR, read-out: HTT CJ IC50
[3] = Table 5 panel, canonical junction qPCR, compound concentration having 50% response in CJ decrease, read-out: HTT IC50 (decrease in CJ mRNA levels)
[4] = Table 5 panel, canonical junction qPCR, compound concentration having 50% response in CJ decrease, read-out: MYB IC50 (decrease in CJ mRNA levels)
[5] = decrease in MYB canonical junction (CJ) mRNA, RT-qPCR, read-out: MYB CJ IC50

IC50 (HTT mRNA; [2]) [nM] | IC50 (HTT mRNA; [3]) [nM] | IC50 (Target C) [nM] | IC50 (MYB mRNA; [4]) [nM] | IC50 (MYB mRNA; [5]) [nM] | GI50 [1] [nM] | SMILES | AC50 (HTT mRNA; RT-qPCR) [nM] | AC50 (MYB mRNA; RT-qPCR) [nM]
100 to 1000 | 100 to 1000 | 100 to 1000 | 100 to 1000 | 100 to 1000 | 100 to 1000 | Cc1cn2nc(-c3ccc4c(=O)n(C5CCNCC5)ccc4c3)cc(-n3ccc(=O)cc3)c2n1 [Compound 551, 6-[2-methyl-8-(4-oxo-1-pyridyl)imidazo[1,2-b]pyridazin-6-yl]-2-(4-piperidyl)isoquinolin-1-one] | 100 to 1000 | 100 to 1000
> 10000 | > 10000 | > 10000 | > 10000 | > 10000 | > 10000 | Cc1cn2nc(-c3ccc4c(=O)n(C5CCNCC5)ccc4c3)cc(-n3ccccc3=O)c2n1 [Compound 552, 6-[2-methyl-8-(2-oxo-1-pyridyl)imidazo[1,2-b]pyridazin-6-yl]-2-(4-piperidyl)isoquinolin-1-one] | > 10000 | > 10000
< 100 | < 100 | 100 to 1000 | 100 to 1000 | 100 to 1000 | 100 to 1000 | Cc1cn2nc(-c3cc(O)c4c(=O)n(C5CCN(CCF)CC5)ncc4c3)cc(C)c2n1 [Compound 553] | < 100 | 100 to 1000
100 to 1000 | 100 to 1000 | 100 to 1000 | 100 to 1000 | 100 to 1000 | 100 to 1000 | Cc1cc(-c2cc(F)c3c(=O)n(C4CCNC5(CC5)C4)ncc3c2)cc2cn(C)nc12 (centres unmarked) [Compound 554] | 100 to 1000 | 100 to 1000
< 100 | < 100 | 100 to 1000 | 100 to 1000 | 100 to 1000 | 100 to 1000 | Cc1nc2c(C)cc(-c3cc(F)c4c(=O)n(C5CCNC6(CC6)C5)ncc4c3)cc2o1 (centres unmarked) [Compound 555] | < 100 | 100 to 1000
100 to 1000 | 100 to 1000 | 100 to 1000 | 100 to 1000 | 100 to 1000 | 100 to 1000 | Cc1cn2cc(-c3cc(F)c4c(=O)n(C5CCNC6(CC6)C5)ncc4c3)cc(Cl)c2n1 (centres unmarked) [Compound 556] | 100 to 1000 | 100 to 1000
100 to 1000 | 100 to 1000 | 100 to 1000 | 100 to 1000 | 100 to 1000 | 100 to 1000 | Cc1cn2cc(-c3cc(O)c4c(=O)n(C5CCNC6(CC6)C5)ncc4c3)cc(Cl)c2n1 (centres unmarked) [Compound 557] | 100 to 1000 | 100 to 1000
1000 to 10000 | 1000 to 10000 | 1000 to 10000 | 100 to 1000 | 100 to 1000 | 100 to 1000 | CCc1cn(C2CCNCC2)c(=O)c2c(F)cc(-c3cc(F)c4nc(C)cn4c3)cc12 [Compound 558, 4-ethyl-8-fluoro-6-{8-fluoro-2-methylimidazo[1,2-a]pyridin-6-yl}-2-(piperidin-4-yl)isoquinolin-1-one] | 1000 to 10000 | 100 to 1000
100 to 1000 | < 100 | 100 to 1000 | < 100 | < 100 | < 100 | C=Cc1cn(C2CCNCC2)c(=O)c2c(F)cc(-c3cc(F)c4nc(C)cn4c3)cc12 [Compound 559, 4-ethenyl-8-fluoro-6-{8-fluoro-2-methylimidazo[1,2-a]pyridin-6-yl}-2-(piperidin-4-yl)isoquinolin-1-one] | < 100 | < 100
1000 to 10000 | 100 to 1000 | 100 to 1000 | 100 to 1000 | 100 to 1000 | 100 to 1000 | Cc1cn2cc(-c3ccc4c(=O)n(C5CCNCC5)ccc4c3)cc(C#N)c2n1 [Compound 560, 2-methyl-6-[1-oxo-2-(piperidin-4-yl)isoquinolin-6-yl]imidazo[1,2-a]pyridine-8-carbonitrile] | 100 to 1000 | 100 to 1000
100 to 1000 | 100 to 1000 | 100 to 1000 | 1000 to 10000 | 100 to 1000 | 1000 to 10000 | Cc1cc(-c2cc(O)c3c(=O)n(C4CCNC5(CC5)C4)ncc3c2)cc2cn(C)nc12 (centres unmarked) [Compound 561] | 100 to 1000 | 1000 to 10000
1000 to 10000 | 1000 to 10000 | 1000 to 10000 | 1000 to 10000 | 1000 to 10000 | 1000 to 10000 | Cc1cn2nc(-c3cc4ncn(C5CCNCC5)c(=O)c4cc3F)cc(C)c2n1 [Compound 585, 7-{2,8-dimethylimidazo[1,2-b]pyridazin-6-yl}-6-fluoro-3-(piperidin-4-yl)quinazolin-4-one] | 1000 to 10000 | 1000 to 10000
1000 to 10000 | 100 to 1000 | 1000 to 10000 | 100 to 1000 | 100 to 1000 | 100 to 1000 | Cc1cn2cc(-c3cc4ncn(C5CCNCC5)c(=O)c4cc3F)cc(F)c2n1 [Compound 586, 6-fluoro-7-{8-fluoro-2-methylimidazo[1,2-a]pyridin-6-yl}-3-(piperidin-4-yl)quinazolin-4-one] | 100 to 1000 | 100 to 1000
100 to 1000 | 100 to 1000 | 100 to 1000 | < 100 | < 100 | 100 to 1000 | Cc1cn2cc(-c3cc(O)c4c(=O)n(C5CCNCC5)cnc4c3)cc(F)c2n1 [Compound 587, 7-{8-fluoro-2-methylimidazo[1,2-a]pyridin-6-yl}-5-hydroxy-3-(piperidin-4-yl)quinazolin-4-one] | 100 to 1000 | < 100
1000 to 10000 | 1000 to 10000 | 1000 to 10000 | 100 to 1000 | 1000 to 10000 | 1000 to 10000 | Cc1cn2cc(-c3cc(F)c4c(=O)n(C5CCNCC5)cnc4c3)cc(C#N)c2n1 [Compound 588] | 1000 to 10000 | 100 to 1000
> 10000 | > 10000 | > 10000 | 1000 to 10000 | 1000 to 10000 | 1000 to 10000 | Cc1cn2nc(-c3cc(F)c4c(=O)n(C5CCNC5)cnc4c3)cc(C)c2n1 (centres unmarked) [Compound 589, 7-{2,8-dimethylimidazo[1,2-b]pyridazin-6-yl}-5-fluoro-3-(pyrrolidin-3-yl)quinazolin-4-one] | > 10000 | 1000 to 10000
< 100 | < 100 | < 100 | < 100 | < 100 | 100 to 1000 | Cc1cn2nc(-c3cc(F)c4c(=O)n([C@@H]5CCN(C)C6(CC6)C5)ncc4c3)cc(C)c2n1 [Compound 637] | < 100 | < 100
< 100 | < 100 | < 100 | < 100 | 100 to 1000 | 100 to 1000 | Cc1cn2nc(-c3cc(F)c4c(=O)n([C@H]5CCN(C)C6(CC6)C5)ncc4c3)cc(C)c2n1 [Compound 638] | < 100 | < 100
1000 to 10000 | 100 to 1000 | 1000 to 10000 | 100 to 1000 | 100 to 1000 | 100 to 1000 | Cc1cn2nc(-c3cc4ccn([C@@H]5CCNC5)c(=O)c4cc3O)cc(C)c2n1 [Compound 640, 6-(2,8-dimethylimidazo[1,2-b]pyridazin-6-yl)-7-hydroxy-2-[(3R)-pyrrolidin-3-yl]isoquinolin-1-one] | 100 to 1000 | 100 to 1000
1000 to 10000 | 100 to 1000 | 100 to 1000 | < 100 | 100 to 1000 | 100 to 1000 | Cc1cn2nc(-c3cc4ccn([C@H]5CCNC5)c(=O)c4cc3O)cc(C)c2n1 [Compound 641, 6-(2,8-dimethylimidazo[1,2-b]pyridazin-6-yl)-7-hydroxy-2-[(3S)-pyrrolidin-3-yl]isoquinolin-1-one] | 100 to 1000 | < 100
1000 to 10000 | 100 to 1000 | 1000 to 10000 | 100 to 1000 | 100 to 1000 | 1000 to 10000 | Cc1cn2cc(-c3cc(F)c4c(=O)n([C@@H]5C[C@@H](C)N[C@@H](C)C5)ccc4c3)cc(F)c2n1 [Compound 642, 2-[(2S,6R)-2,6-dimethyl-4-piperidyl]-8-fluoro-6-(8-fluoro-2-methyl-imidazo[1,2-a]pyridin-6-yl)isoquinolin-1-one] | 100 to 1000 | 100 to 1000
> 10000 | > 10000 | > 10000 | 100 to 1000 | 1000 to 10000 | 1000 to 10000 | Cc1cn2cc(-c3cc(F)c4c(=O)n([C@H]5CNC[C@@H]5F)ccc4c3)cc(F)c2n1 [Compound 644] | > 10000 | 100 to 1000
